Test results as given in patent US20210255193A1, “LYSINE REACTIVE PROBES AND USES THEREOF” (The Scripps Research Institute, priority 2017, published 2021).

Key:
Test in all cases: competitive isoTOP-ABPP
Type in all cases: binding
[1] = biological target: T1, GBAS Protein NipSnap homolog 2 (Homo sapiens, UniProt O75323); conditions: for R value (DMSO/fragment) for probe 1 labeling: O75323_K75; for R value (DMSO/fragment) for probe 1 labeling / isoTOP-ABPP reactivity ratio at lysine O75323_K75 / isoTOP-ABPP ratio (R) at liganded lysine O75323_K75: 50 uM, in vitro; for R value (DMSO/fragment) for probe 1 labeling / isoTOP-ABPP reactivity ratio at lysine O75323_K75: 231 sol; for isoTOP-ABPP ratio (R) at liganded lysine O75323_K75: sol, 231; for isoTOP-ABPP ratio, lysine O75323_K75: 50 uM_231_sol_in vitro
T1 construct: isoTOP-ABPP experiments performed in cell lysates (in vitro); endogenous in cells; host or cells: MDA-MB-231 soluble lysate
T1 sequence (O75323 24-286): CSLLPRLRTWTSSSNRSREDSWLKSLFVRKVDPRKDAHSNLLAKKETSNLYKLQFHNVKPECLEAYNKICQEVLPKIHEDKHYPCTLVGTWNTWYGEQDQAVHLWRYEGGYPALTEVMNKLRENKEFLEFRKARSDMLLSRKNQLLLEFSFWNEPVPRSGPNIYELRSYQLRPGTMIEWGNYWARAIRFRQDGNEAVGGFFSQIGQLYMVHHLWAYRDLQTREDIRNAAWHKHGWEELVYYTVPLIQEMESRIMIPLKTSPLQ
Summary of the method: (§1)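 Cell lysate (0.5 ml) was pre-treated with fragment, 50 μM for activated esters or 100 μM for guanidinylating agents, versus DMSO, then labeled 1 h at ambient temperature with 0.1 mM STP-alkyne. Light/heavy TEV tags attached by CuAAC; R = DMSO/compound MS1 peak-area ratio, median per lysine.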

[2] = biological target: T2, XRCC6 X-ray repair cross-complementing protein 6 (Homo sapiens, UniProt P12956); conditions: for R value (DMSO/fragment) for probe 1 labeling: P12956_K351; for R value (DMSO/fragment) for probe 1 labeling / isoTOP-ABPP reactivity ratio at lysine P12956_K351 / isoTOP-ABPP ratio (R) at liganded lysine P12956_K351: 50 uM, in vitro; for R value (DMSO/fragment) for probe 1 labeling / isoTOP-ABPP reactivity ratio at lysine P12956_K351: 231 sol; for isoTOP-ABPP ratio (R) at liganded lysine P12956_K351: sol, 231; for isoTOP-ABPP ratio, lysine P12956_K351: 50 uM_231_sol_in vitro
T2 construct: isoTOP-ABPP experiments performed in cell lysates (in vitro); endogenous in cells; host or cells: soluble proteome of human cancer cell lines (MDA-MB-231; Ramos and Jurkat also prepared)
Summary of the method: as §1

[3] = biological target: T3, WARS Tryptophan--tRNA ligase, cytoplasmic (Homo sapiens, UniProt P23381); conditions: 50 uM, in vitro; for R value (DMSO/fragment) for probe 1 labeling: P23381_K256; for R value (DMSO/fragment) for probe 1 labeling / isoTOP-ABPP reactivity ratio at lysine P23381_K256: 231 sol; for isoTOP-ABPP ratio (R) at liganded lysine P23381_K256: sol, 231
T3 construct: isoTOP-ABPP experiments performed in cell lysates (in vitro); endogenous in cells; host or cells: soluble proteome of human cancer cell lines (MDA-MB-231; Ramos and Jurkat also prepared)
T3 sequence (P23381 1-471): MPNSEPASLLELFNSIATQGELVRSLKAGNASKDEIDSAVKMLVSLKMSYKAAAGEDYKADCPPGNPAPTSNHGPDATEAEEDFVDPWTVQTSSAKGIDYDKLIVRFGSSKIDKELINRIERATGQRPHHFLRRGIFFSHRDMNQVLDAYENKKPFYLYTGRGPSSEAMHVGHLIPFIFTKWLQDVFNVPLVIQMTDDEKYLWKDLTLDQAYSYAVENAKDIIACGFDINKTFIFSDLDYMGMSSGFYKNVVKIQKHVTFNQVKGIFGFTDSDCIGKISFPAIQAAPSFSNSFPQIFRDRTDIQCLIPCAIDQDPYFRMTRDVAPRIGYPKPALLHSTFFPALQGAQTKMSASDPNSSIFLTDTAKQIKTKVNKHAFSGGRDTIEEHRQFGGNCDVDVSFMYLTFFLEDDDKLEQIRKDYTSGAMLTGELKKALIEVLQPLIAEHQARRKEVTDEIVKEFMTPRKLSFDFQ
Summary of the method: as §1

T2 sequence (P12956 2-609 limits assumed): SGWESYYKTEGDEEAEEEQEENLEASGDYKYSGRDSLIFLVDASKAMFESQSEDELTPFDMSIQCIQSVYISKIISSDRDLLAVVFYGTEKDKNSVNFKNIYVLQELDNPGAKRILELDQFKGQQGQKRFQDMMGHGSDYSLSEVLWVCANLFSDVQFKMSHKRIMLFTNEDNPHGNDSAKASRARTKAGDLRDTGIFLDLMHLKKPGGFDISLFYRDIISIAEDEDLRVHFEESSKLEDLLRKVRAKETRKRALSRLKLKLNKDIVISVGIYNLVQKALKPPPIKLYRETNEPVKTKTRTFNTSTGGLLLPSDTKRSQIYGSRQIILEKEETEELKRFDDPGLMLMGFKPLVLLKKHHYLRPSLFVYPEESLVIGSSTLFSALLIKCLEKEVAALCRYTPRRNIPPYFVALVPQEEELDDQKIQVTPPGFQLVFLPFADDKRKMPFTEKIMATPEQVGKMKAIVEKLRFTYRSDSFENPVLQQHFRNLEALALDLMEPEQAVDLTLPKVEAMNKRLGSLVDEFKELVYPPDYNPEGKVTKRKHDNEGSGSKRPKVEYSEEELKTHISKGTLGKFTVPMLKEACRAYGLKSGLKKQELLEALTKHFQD
T2 sequence (P13010 2-732 partner limits assumed): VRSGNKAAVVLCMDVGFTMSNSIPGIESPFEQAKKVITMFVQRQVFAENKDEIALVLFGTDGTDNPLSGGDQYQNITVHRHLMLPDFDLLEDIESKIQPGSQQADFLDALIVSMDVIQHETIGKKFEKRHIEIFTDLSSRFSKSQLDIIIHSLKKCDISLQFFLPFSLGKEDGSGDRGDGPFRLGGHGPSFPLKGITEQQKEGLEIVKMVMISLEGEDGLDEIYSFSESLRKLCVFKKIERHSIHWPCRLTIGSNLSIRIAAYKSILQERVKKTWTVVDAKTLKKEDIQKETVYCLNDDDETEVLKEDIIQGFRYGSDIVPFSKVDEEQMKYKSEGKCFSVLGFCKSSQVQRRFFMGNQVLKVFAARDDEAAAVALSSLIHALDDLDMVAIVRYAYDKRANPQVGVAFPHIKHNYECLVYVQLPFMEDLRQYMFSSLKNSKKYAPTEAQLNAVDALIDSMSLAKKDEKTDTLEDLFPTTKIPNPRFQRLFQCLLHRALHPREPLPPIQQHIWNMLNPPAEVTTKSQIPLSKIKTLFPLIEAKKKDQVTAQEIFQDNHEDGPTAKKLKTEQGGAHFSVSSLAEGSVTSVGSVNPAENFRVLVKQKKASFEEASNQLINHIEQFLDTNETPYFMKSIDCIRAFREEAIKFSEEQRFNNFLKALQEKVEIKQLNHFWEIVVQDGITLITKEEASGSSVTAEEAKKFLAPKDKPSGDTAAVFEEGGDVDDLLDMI

O=C(CCc1cn(-c2ccccc2)nc1-c1ccccc1)Oc1c(F)c(F)c(F)c(F)c1F [fragment 19, Pentafluorophenyl 3-(1,3-diphenyl-1H-pyrazol-4-yl)propanoate]
R value (DMSO/fragment) for probe 1 labeling [1]: 1.0 | R value (DMSO/fragment) for probe 1 labeling [2]: 1.7 | R value (DMSO/fragment) for probe 1 labeling [3]: 1.2

O=C(Oc1c(F)c(F)c(F)c(F)c1F)C(c1ccccc1)c1ccccc1 [fragment 20, Pentafluorophenyl 2,2-diphenylacetate]
R value (DMSO/fragment) for probe 1 labeling [1]: 0.9 | R value (DMSO/fragment) for probe 1 labeling [2]: 2.3 | R value (DMSO/fragment) for probe 1 labeling [3]: 1.3

O=C(Oc1c(F)c(F)c(F)c(F)c1F)c1cc(C(F)(F)F)cc(C(F)(F)F)c1 [fragment 21, Pentafluorophenyl 3,5-bis(trifluoromethyl)benzoate]
R value (DMSO/fragment) for probe 1 labeling [1]: 0.8 | R value (DMSO/fragment) for probe 1 labeling [2]: 1.4 | R value (DMSO/fragment) for probe 1 labeling [3]: 1.1

Cn1cc(CC(=O)Oc2c(F)c(F)c(F)c(F)c2F)c2ccccc21 [fragment 22, Pentafluorophenyl 2-(1-methyl-1H-indol-3-yl)acetate]
R value (DMSO/fragment) for probe 1 labeling [1]: 1.5 | R value (DMSO/fragment) for probe 1 labeling [2]: 3.6 | R value (DMSO/fragment) for probe 1 labeling [3]: 1.0

COc1cc(CCC(=O)Oc2c(F)c(F)c(F)c(F)c2F)cc(OC)c1OC [fragment 23, Pentafluorophenyl 3-(3,4,5-trimethoxyphenyl)propanoate]
R value (DMSO/fragment) for probe 1 labeling [1]: 1.1 | R value (DMSO/fragment) for probe 1 labeling [2]: 1.2

O=C(Oc1c(F)c(F)c(F)c(F)c1F)C1CCN(C(=O)OCc2ccccc2)CC1 [fragment 24, 1-Benzyl 4-(pentafluorophenyl) piperidine-1,4-dicarboxylate]
isoTOP-ABPP reactivity ratio at lysine O75323_K75 [1]: 1.0 | isoTOP-ABPP reactivity ratio at lysine P12956_K351 [2]: 1.3

O=C(Oc1c(F)c(F)c(F)c(F)c1F)c1ccc2ccccc2n1 [fragment 25, Pentafluorophenyl quinoline-2-carboxylate]
isoTOP-ABPP reactivity ratio at lysine O75323_K75 [1]: 1.4 | isoTOP-ABPP reactivity ratio at lysine P12956_K351 [2]: 1.6 | isoTOP-ABPP reactivity ratio at lysine P23381_K256 [3]: 4.4

O=C(CCc1coc2cc(F)ccc2c1=O)Oc1c(F)c(F)c(F)c(F)c1F [fragment 26, Pentafluorophenyl 3-(7-fluoro-4-oxo-4H-chromen-3-yl)propanoate]
isoTOP-ABPP reactivity ratio at lysine O75323_K75 [1]: 4.2 | isoTOP-ABPP reactivity ratio at lysine P12956_K351 [2]: 2.1 | isoTOP-ABPP reactivity ratio at lysine P23381_K256 [3]: 2.3

O=C(CN1C(=O)c2ccccc2C1=O)Oc1c(F)c(F)c(F)c(F)c1F [fragment 27, Pentafluorophenyl 2-(1,3-dioxoisoindolin-2-yl)acetate]
isoTOP-ABPP reactivity ratio at lysine O75323_K75 [1]: 20.0 | isoTOP-ABPP reactivity ratio at lysine P12956_K351 [2]: 3.1 | isoTOP-ABPP reactivity ratio at lysine P23381_K256 [3]: 2.7

CCn1cc(C(=O)Oc2c(F)c(F)c(F)c(F)c2F)c(=O)c2ccc(C)nc21 [fragment 28, Pentafluorophenyl 1-ethyl-7-methyl-4-oxo-1,4-dihydro-1,8-naphthyridine-3-carboxylate]
isoTOP-ABPP reactivity ratio at lysine O75323_K75 [1]: 1.0 | isoTOP-ABPP reactivity ratio at lysine P12956_K351 [2]: 1.9 | isoTOP-ABPP reactivity ratio at lysine P23381_K256 [3]: 1.0

O=C(CCc1cn(-c2ccccc2)nc1-c1ccccc1)Oc1ccc([N+](=O)[O-])cc1[N+](=O)[O-] [fragment 29, 2,4-Dinitrophenyl 3-(1,3-diphenyl-1H-pyrazol-4-yl)propanoate]
isoTOP-ABPP reactivity ratio at lysine O75323_K75 [1]: 1.0 | isoTOP-ABPP reactivity ratio at lysine P12956_K351 [2]: 3.2 | isoTOP-ABPP reactivity ratio at lysine P23381_K256 [3]: 0.9

O=C(Oc1ccc([N+](=O)[O-])cc1[N+](=O)[O-])C(c1ccccc1)c1ccccc1 [fragment 30, 2,4-Dinitrophenyl 2,2-diphenylacetate]
isoTOP-ABPP reactivity ratio at lysine O75323_K75 [1]: 1.1 | isoTOP-ABPP reactivity ratio at lysine P12956_K351 [2]: 20.0 | isoTOP-ABPP reactivity ratio at lysine P23381_K256 [3]: 1.1

O=C(Oc1ccc([N+](=O)[O-])cc1[N+](=O)[O-])c1cc(C(F)(F)F)cc(C(F)(F)F)c1 [fragment 31, 2,4-Dinitrophenyl 3,5-bis(trifluoromethyl)benzoate]
isoTOP-ABPP reactivity ratio at lysine O75323_K75 [1]: 0.8 | isoTOP-ABPP reactivity ratio at lysine P12956_K351 [2]: 2.6 | isoTOP-ABPP reactivity ratio at lysine P23381_K256 [3]: 0.9

Cn1cc(CC(=O)Oc2ccc([N+](=O)[O-])cc2[N+](=O)[O-])c2ccccc21 [fragment 32, 2,4-Dinitrophenyl 2-(1-methyl-1H-indol-3-yl)acetate]
isoTOP-ABPP reactivity ratio at lysine P12956_K351 [2]: 13.4 | isoTOP-ABPP reactivity ratio at lysine P23381_K256 [3]: 0.9

COc1cc(CCC(=O)Oc2ccc([N+](=O)[O-])cc2[N+](=O)[O-])cc(OC)c1OC [fragment 33, 2,4-Dinitrophenyl 3-(3,4,5-trimethoxyphenyl)propanoate]
isoTOP-ABPP reactivity ratio at lysine O75323_K75 [1]: 3.0 | isoTOP-ABPP reactivity ratio at lysine P12956_K351 [2]: 2.5 | isoTOP-ABPP reactivity ratio at lysine P23381_K256 [3]: 0.8

O=C(Oc1ccc([N+](=O)[O-])cc1[N+](=O)[O-])C1CCN(C(=O)OCc2ccccc2)CC1 [fragment 34, 1-Benzyl 4-(2,4-dinitrophenyl) piperidine-1,4-dicarboxylate]
isoTOP-ABPP ratio (R) at liganded lysine P12956_K351 [2]: 1.6 | isoTOP-ABPP ratio (R) at liganded lysine P23381_K256 [3]: 1.0

O=C(Oc1ccc([N+](=O)[O-])cc1[N+](=O)[O-])c1ccc2ccccc2n1 [fragment 35, 2,4-Dinitrophenyl quinoline-2-carboxylate]
isoTOP-ABPP ratio (R) at liganded lysine O75323_K75 [1]: 1.6 | isoTOP-ABPP ratio (R) at liganded lysine P12956_K351 [2]: 1.5 | isoTOP-ABPP ratio (R) at liganded lysine P23381_K256 [3]: 1.1

O=C(CCc1coc2cc(F)ccc2c1=O)Oc1ccc([N+](=O)[O-])cc1[N+](=O)[O-] [fragment 36, 2,4-Dinitrophenyl 3-(7-fluoro-4-oxo-4H-chromen-3-yl)propanoate]
isoTOP-ABPP ratio (R) at liganded lysine O75323_K75 [1]: 20.0 | isoTOP-ABPP ratio (R) at liganded lysine P12956_K351 [2]: 2.1 | isoTOP-ABPP ratio (R) at liganded lysine P23381_K256 [3]: 1.0

O=C(Oc1ccc([N+](=O)[O-])cc1[N+](=O)[O-])c1ccc(-c2ccccc2)cc1 [fragment 37, 2,4-Dinitrophenyl [1,1′-biphenyl]-4-carboxylate]
isoTOP-ABPP ratio (R) at liganded lysine O75323_K75 [1]: 1.6 | isoTOP-ABPP ratio (R) at liganded lysine P12956_K351 [2]: 1.3 | isoTOP-ABPP ratio (R) at liganded lysine P23381_K256 [3]: 0.4

O=C(CC12CC3CC(CC(C3)C1)C2)Oc1ccc([N+](=O)[O-])cc1[N+](=O)[O-] [fragment 38, 2,4-Dinitrophenyl 2-(adamantan-1-yl)acetate]
isoTOP-ABPP ratio (R) at liganded lysine O75323_K75 [1]: 1.3 | isoTOP-ABPP ratio (R) at liganded lysine P12956_K351 [2]: 3.3 | isoTOP-ABPP ratio (R) at liganded lysine P23381_K256 [3]: 1.4

O=C(Oc1ccc([N+](=O)[O-])cc1[N+](=O)[O-])c1ccc(Oc2ccccc2)cc1 [fragment 39, 2,4-Dinitrophenyl 4-phenoxybenzoate]
isoTOP-ABPP ratio (R) at liganded lysine O75323_K75 [1]: 20.0 | isoTOP-ABPP ratio (R) at liganded lysine P12956_K351 [2]: 1.6 | isoTOP-ABPP ratio (R) at liganded lysine P23381_K256 [3]: 0.9

O=C(Oc1ccc([N+](=O)[O-])cc1[N+](=O)[O-])c1ccccc1Nc1cccc(C(F)(F)F)c1 [fragment 40, 2,4-Dinitrophenyl 2-((3-(trifluoromethyl)phenyl)amino)benzoate]
isoTOP-ABPP ratio (R) at liganded lysine O75323_K75 [1]: 1.0 | isoTOP-ABPP ratio (R) at liganded lysine P12956_K351 [2]: 1.0 | isoTOP-ABPP ratio (R) at liganded lysine P23381_K256 [3]: 1.1

CC(C)(C)OC(=O)NCCCC(=O)Oc1ccc([N+](=O)[O-])cc1[N+](=O)[O-] [fragment 41, 2,4-Dinitrophenyl 4-((tert-butoxycarbonyl)amino)butanoate]
isoTOP-ABPP ratio (R) at liganded lysine O75323_K75 [1]: 1.8 | isoTOP-ABPP ratio (R) at liganded lysine P12956_K351 [2]: 1.6 | isoTOP-ABPP ratio (R) at liganded lysine P23381_K256 [3]: 0.9

O=C(Oc1c(F)c(F)c(C(F)(F)F)c(F)c1F)c1cc(C(F)(F)F)cc(C(F)(F)F)c1 [fragment 47, 2,3,5,6-Tetrafluoro-4-(trifluoromethyl)phenyl 3,5-bis(trifluoromethyl)benzoate]
isoTOP-ABPP ratio, lysine O75323_K75 [1]: 1.0 | isoTOP-ABPP ratio, lysine P12956_K351 [2]: 1.4

O=C(Oc1c(F)c(F)cc(F)c1F)c1cc(C(F)(F)F)cc(C(F)(F)F)c1 [fragment 48, 2,3,5,6-Tetrafluorophenyl 3,5-bis(trifluoromethyl)benzoate]
isoTOP-ABPP ratio, lysine O75323_K75 [1]: 0.9 | isoTOP-ABPP ratio, lysine P12956_K351 [2]: 1.5

NC(=O)c1cc(C(F)(F)F)cc(C(F)(F)F)c1 [fragment 51, reference compound]
isoTOP-ABPP ratio, lysine O75323_K75 [1]: 0.9 | isoTOP-ABPP ratio, lysine P12956_K351 [2]: 0.8
